Measured values reported in ChEMBL document CHEMBL1132852, “Synthesis and structure-activity relationships of 4-oxo-1-phenyl-3,4,6,7-tetrahydro-[1,4]diazepino[6,7,1-hi]indoles: novel PDE4 inhibitors” (Bioorg Med Chem Lett, 2000).
Active and inactive are the calls of the source. The rule behind the calls is not given here.

Experiments:
[1] = molecular target: Phosphodiesterase 3 (Homo sapiens, UniProt Q14432+Q13370); assay: Inhibition of Phosphodiesterase 3 extracted from dog aorta smooth muscle cells by using radioligands [3H]cAMP or [3H]-cGMP.; parameters: species or system Canis lupus familiaris; settings: target entry is the homologue from another species
[2] = molecular target: Phosphodiesterase 4 (Homo sapiens, UniProt P27815+Q08499+Q07343+Q08493); assay: Inhibition of phosphodiesterase 4 extracted from human U937 cells by using radioligands [3H]-cAMP or [3H]cGMP.; type: cell-free; settings: u-937
[3] = molecular target: Phosphodiesterase, PDE1/PDE5 (Homo sapiens, UniProt O76074+P54750+Q01064+Q14123); assay: Inhibitory activity against phosphodiesterase 1/5 (PDE1/5) extracted from guinea pig trachea smooth muscle cells by using radioligands [3H]-cAMP or [3H]cGMP; type: tissue-based, Cavia porcellus; settings: target entry is the homologue from another species
[4] = tested on: Canis familiaris; assay: Emetic effect in dogs administered at 3 mg/kg intravenously (No effect); type: functional, organism-based; parameters: dose 3 mg/kg; settings: Canis lupus familiaris
[5] = molecular target: Phosphodiesterase 4 (Rattus norvegicus, UniProt P14270+P14646+P14644+P54748); assay: Displacement of [3H]rolipram from rat brain membrane suspensions; type: functional, tissue-based
[6] = tested on: Rattus norvegicus; assay: Inhibition of antigen-induced lung eosinophilia in ovalbumin sensitized brown-norway rats after oral administration; type: functional
[7] = tested on: Canis familiaris; assay: Emetic effect in dogs administered at 3 mg/kg intravenously (no effect); type: functional, organism-based; parameters: dose 3 mg/kg; settings: Canis lupus familiaris
[8] = tested on: Canis familiaris; assay: Emetic effect in dogs administered at 0.03 mg/kg intravenously (No effect); type: functional, organism-based; parameters: dose 0.03 mg/kg; settings: Canis lupus familiaris

Row | Structure (SMILES) | IC50 [1] | IC50 [2] | IC50 [3] | Activity [4] | IC50 [5] | ED50 [6] | Activity [7] | Activity [8]
1 | COc1ccc(C(=O)N[C@@H]2N=C(c3ccccc3)c3cc(C)cc4c3N(CC4)C2=O)c(OC)c1 | 7.85 µM | 0.96 µM | – | – | – | – | – | –
2 | O=C(NC1N=C(c2ccccc2F)c2cc(Cl)cc3c2N(CC3)C1=O)c1cc2ccccc2[nH]1 (stereo not given) | > 100 µM | > 100 µM | – | – | – | – | – | –
3 | Cc1cc2c3c(c1)C(c1ccccc1)=N[C@@H](NC(=O)c1ccc(Cl)cc1Cl)C(=O)N3CC2 | 17.5 µM | 0.76 µM | > 100 µM | – | – | – | – | –
4 | O=C(N[C@@H]1N=C(c2ccccc2)c2cccc3c2N(CC3)C1=O)c1cc2ccccc2cn1 | > 100 µM | 4.2 µM | > 100 µM | – | – | – | – | –
5 | O=C(N[C@@H]1N=C(c2ccccc2)c2cc(O)cc3c2N(CC3)C1=O)c1cc2ccccc2cn1 | > 3.5 µM | 0.41 µM | > 100 µM | – | – | – | – | –
6 | Cc1cc2c3c(c1)C(c1ccccc1)=N[C@@H](NC(=O)c1ccc(Cl)cc1)C(=O)N3CC2 | 27 µM | 1.25 µM | > 100 µM | – | – | – | – | –
7 | COc1cc2c3c(c1)C(c1ccccc1)=N[C@@H](NC(=O)c1ccc(Cl)cc1)C(=O)N3CC2 | 62 µM | 1.8 µM | 40 µM | – | – | – | – | –
8 | O=C(NC1N=C(c2ccccc2)c2cccc3c2N(CCC3)C1=O)c1cc2ccccc2[nH]1 (stereo not given) | > 100 µM | > 100 µM | > 100 µM | – | – | – | – | –
9 | O=C(NC1N=C(c2ccccc2)c2ccccc2NC1=O)c1cc2ccccc2[nH]1 (stereo not given) | > 100 µM | > 100 µM | – | – | – | – | – | –
10 | O=C(N[C@H]1N=C(c2ccccc2)c2cccc3c2N(CC3)C1=O)c1cc2ccccc2[nH]1 | > 100 µM | 100 µM | 100 µM | – | – | – | – | –
11 | COc1cc2c3c(c1)C(c1ccccc1)=N[C@@H](NC(=O)c1cc4ccccc4[nH]1)C(=O)N3CC2 | > 100 µM | 0.65 µM | 100 µM | – | – | – | – | –
12 | Cc1cc2c3c(c1)C(c1ccccc1)=N[C@@H](NC(=O)c1cc(Cl)c(N)c(Cl)c1)C(=O)N3CC2 | 17.5 µM | 0.33 µM | > 100 µM | – | – | – | – | –
13 | COc1cc2c3c(c1)C(c1ccccc1)=N[C@@H](NC(=O)c1cc4ccccc4cn1)C(=O)N3CC2 | 82 µM | 1.62 µM | 65.3 µM | – | – | – | – | –
14 | O=C(N[C@@H]1N=C(c2ccccc2)c2cccc3c2N(CC3)C1=O)c1cc2ccccc2[nH]1 | > 100 µM | 4 µM | > 100 µM | – | – | – | – | –
15 | Nc1c(Cl)cc(C(=O)N[C@@H]2N=C(c3ccccc3)c3cccc4c3N(CC4)C2=O)cc1Cl | > 100 µM | 0.63 µM | > 100 µM | – | – | – | – | –
16 | Cc1cc2c3c(c1)C(c1ccccc1)=N[C@@H](NC(=O)c1cc4ccccc4cn1)C(=O)N3CC2 | > 100 µM | 2.6 µM | > 100 µM | inactive | > 3 µM | 10.7 mg/kg | – | –
17 | Cc1cc2c3c(c1)C(c1ccccc1)=N[C@@H](NC(=O)c1ccncc1)C(=O)N3CC2 | > 100 µM | 1.14 µM | > 100 µM | – | – | 6.9 mg/kg | inactive | –
18 | COc1ccc(C2CNC(=O)C2)cc1OC1CCCC1 (stereo not given) | – | – | – | – | – | – | – | inactive
19 | O=C(N[C@@H]1N=C(c2ccccc2F)c2cccc3c2N(CC3)C1=O)c1cc2ccccc2[nH]1 | > 100 µM | > 100 µM | – | – | – | – | – | –
20 | Cc1cc2c3c(c1)C(c1ccccc1)=N[C@@H](NC(=O)c1nnc4cc(C)nn4c1C)C(=O)N3CC2 | > 100 µM | 0.71 µM | > 100 µM | – | – | – | – | –
21 | COc1ccccc1C(=O)N[C@@H]1N=C(c2ccccc2)c2cc(C)cc3c2N(CC3)C1=O | > 100 µM | 0.76 µM | 71.7 µM | – | – | – | – | –
22 | Cc1cc2c3c(c1)C(c1ccccc1)=N[C@@H](NC(=O)c1cc(Cl)cc(Cl)c1)C(=O)N3CC2 | 43.7 µM | 1.15 µM | > 100 µM | – | – | – | – | –
